# US10759816B2, “Heterocyclic compounds as RSV inhibitors” (Enanta Pharmaceuticals, Inc., priority 2016, dated 2020)
# Where two headings read alike, the source gives them in different places.
# Test system: genotype A, "Long" strain RSV
# Assay: RSV-A in vitro cytoprotection assay in HEp-2 cells (ATPlite readout of cell viability)
# Type: cell-based, Human respiratory syncytial virus
# Conditions: human respiratory syncytial virus
# In short: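 HEp-2 cells (8,000/well) given 2-fold compound dilutions in duplicate, then infected with RSV-A Long strain stock; viability read by ATPlite luminescence after 4 days. EC50 derived from cytoprotection; cytotoxicity measured on parallel uninfected plate.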
# [1] = HEp-2, HEp-2 cells, genotype A “Long” strain RSV, cytoprotection, read-out: Human RSV-A (“Long” strain) EC50
Structure (SMILES),EC50 [1] [nM],EC50 (HEp-2) [nM]
COC[C@H]1CCCN1c1cccc(C(=O)N2CCc3cc(C(=O)Nc4c(C)cccc4F)sc3-c3ccc(Br)cc32)n1 [Example 498],< 400,
COC[C@H]1CCCN1c1cccc(C(=O)N2CCc3cc(C(=O)Nc4c(C)cccc4F)sc3-c3ccc(C)cc32)n1 [Example 499],< 400,
COC[C@H]1CCCN1c1cccc(C(=O)N2CCc3cc(C(=O)Nc4c(C)cccc4F)sc3-c3ccc(C4CC4)cc32)n1 [Example 500],> 800,
COC[C@@H](Nc1cccc(C(=O)N2CCc3cc(C(=O)Nc4c(C)cccc4F)sc3-c3ccccc32)n1)c1ccccc1 [Example 501],> 800,
Cc1cccc(F)c1NC(=O)c1cc2c(s1)-c1ccccc1N(C(=O)c1cccc(N[C@H](CO)c3ccccc3)n1)CC2 [Example 502],< 400,
Cc1cccc(F)c1NC(=O)c1cc2c(s1)-c1cccc(F)c1N(C(=O)c1cccc(N3CCCOCC3)n1)CC2 [Example 503],< 400,
Cc1cccc(F)c1NC(=O)c1cc2c(s1)-c1cccc(F)c1N(C(=O)c1cccc(N3CCOc4ccccc4C3)n1)CC2 [Example 504],> 800,
COC[C@@H]1CCCN1c1cccc(C(=O)N2CCc3cc(C(=O)Nc4c(C)cccc4F)sc3-c3ccccc32)n1 [Example 505],< 400,
COC[C@H]1CCCN1c1cccc(C(=O)N2CCc3cc(C(=O)Nc4c(C)cccc4F)sc3-c3ccccc32)n1 [Example 506],< 400,
COC[C@H]1CCN1c1cccc(C(=O)N2CCc3cc(C(=O)Nc4c(C)cccc4F)sc3-c3ccccc32)n1 [Example 507],< 400,
"O=C(Nc1ccccc1F)N[C@H]1N=C(c2ccccc2)c2ccccc2NC1=O [RSV-604, reference compound]",,~2400
